Data on 1 compound can be found in patent publication US6808699B2, “Methods for imaging pulmonary and cardiac vasculature and evaluating blood flow using dissolved polarized 129Xe” (Medi-Physics, Inc., priority 1998, dated 2004).

Read-outs that look alike come from different tables or passages of the source.

A short description of data set [1]: longitudinal relaxation time T1 of polarized 129Xe. The conditions noted are these: gas in the lung, with decay due to blood uptake included. Type of data set: physicochemical, human. The source says:
As will be appreciated by those of skill in the art, imaging with polarized dissolved gas depends on transport of sufficient surviving polarization or magnetization to tissues of interest. In a preferred embodiment, the tissues of interest include the pulmonary region, and particularly the pulmonary vasculature. As will also be appreciated by those of skill in the art, polarization decays corresponding to the longitudinal relaxation time, T1. Dissolved phase ^129Xe can have a relatively short relaxation time (T1) generally thought to be due to the presence of oxygen and due to paramagnetic deoxyhemoglobin in the blood. For example, T1 for substantially fully oxygenated human cell membranes is estimated at about 15 seconds. Alternatively, T1 in blood has also been estimated as about 5 seconds. See A. Bifone et al., 93 Proc. Natl. Acad. Sci., p. 12932 (1996). Taking the estimated upper limit of about a five second transit time to the heart as discussed above, the xenon polarization can be attenuated to about ⅓ of its starting value at the heart. This relationship supports that TR should be shortened to less than about 2.5 seconds, and preferably less than about 1-2 seconds. Correspondingly, with about a 2.5 second transit time, the magnetization can be calculated as noted above to be about 0.61 of its starting magnetization. […]

The conditions of data set [2]: cited from earlier work; for longitudinal relaxation time T1: dissolved phase, estimated.

As to `[129Xe]` [^129Xe, Xenon-129], the “effective T1” value in data set [1] was “about 33 seconds”. The “longitudinal relaxation time T1” value is “about 5 seconds” in data set [2] (in blood, Bifone et al. 1996) and “about 15 seconds” in data set [2] (substantially fully oxygenated human cell membranes). In addition, the “gas phase T1” value in data set [2] (gas phase in the lungs, estimated from generally known oxygen related effects) is reported as “about 35 seconds”.
